Test results from ChEMBL document CHEMBL2321872, “Synthesis and antimycobacterial activity of 2,1'-dihydropyridomycins” (ACS Med Chem Lett, 2013).
In brackets after ≈: the same amount, converted by molar mass.

test system: Mycobacterium tuberculosis; assay: Antimycobacterial activity against Mycobacterium tuberculosis H37Rv assessed as growth inhibition after 7 days by resazurin method; format: functional; conditions: 168 h

| Structure (SMILES) | MIC |
| --- | --- |
| CC(C)[C@H]1OC(=O)[C@H](C)[C@H](O)[C@H](Cc2cccnc2)NC(=O)[C@@H](NC(=O)c2ncccc2O)[C@@H](C)OC1=O | 1.56 mg/L (≈ 2.95 µM) |
| CC/C(C)=C1\OC(=O)[C@H](C)[C@H](O)[C@H](Cc2cccnc2)NC(=O)[C@@H](NC(=O)c2ncccc2O)[C@@H](C)OC1=O [PYRIDOMYCIN] | 0.39 mg/L (≈ 0.721 µM) |
| CC(C)[C@@H]1OC(=O)[C@H](C)[C@H](O)[C@H](Cc2cccnc2)NC(=O)[C@@H](NC(=O)c2ncccc2O)[C@@H](C)OC1=O | 12.5 mg/L (≈ 23.6 µM) |
